# Experimental data as given in US20160115540A1, “PRODRUGS AND DRUGS” (Biogen MA Inc., priority 2013, published 2016).
# Where a name gives a salt, the structure may show the parent alone.
# System: hippocampus
# Assay: Transcriptional profiling on Affymetrix GeneChips, single dose, naïve mice: hippocampus
# Type: in vivo, C57BL/6 mice
# Conditions: for Tmtc3 (1458305_PM_at) differential expression: 7 hr; for Number of differentially expressed genes identified: Hippocampus: Naïve, Single Dose
# Description: Treated mice were sacrificed at 2, 7, or 12 hours. Tissues (liver, spleen, kidney, jejunum, cortex, hippocampus, striatum and whole blood) were collected and analyzed by transcriptional profiling on mouse Affymetrix GeneChips.
# Tissues (liver, spleen, kidney, jejunum, cortex, hippocampus, striatum and whole blood) were collected and analyzed by transcriptional profiling on mouse Affymetrix GeneChips.
# Animals were exposed to CO2 and whole blood collected via cardiac puncture. Two 100 μl aliquots of whole blood were collected in 1.5 mL microcentrifuge tubes and snap frozen in liquid nitrogen. Peripheral (liver, spleen, kidney and jejunum) and CNS brain (cerebellum, hippocampus, striatum and cortex) tissues were harvested and snap frozen in liquid nitrogen, with special care taken to collect tissues of similar size and from the same location. All samples were stored at −80° C. until RNA extraction was conducted.
# For RNA preparation, frozen tissues were placed in 2 mL RNAse-free 96-well blocks with 1.5 mL QIAzol Lysis Reagent (QIAgen) and a 3.2 mm stainless steel bead (BioSpec Products, Bartlesville, Okla.). Tissues were disrupted for four cycles of 45 seconds in a Mini-Beadbeater (Biospec Products). RNA was extracted in chloroform and the aqueous phase was mixed with an equal volume of 70% ethanol. Extracted RNA was applied to RNeasy 96 plates and purified by the spin method according to the manufacturer's protocol (RNeasy 96 Universal Tissue Protocol, QIAgen, Hilden Germany).
# Automated sample amplifications and biotin labelings were carried out using the NuGEN Ovation RNA Amplification system V2 (Cat #3100), Ovation WB reagent (Cat #1300) and Encore Biotin module (Cat #4200) (NuGEN Technologies, Inc, San Carlos, Calif.) according to manufacturer's recommendations using an Arrayplex automated liquid handler (Beckman Coulter, Indianapolis, Ind.). Two micrograms of biotin labeled sscDNA probe were hybridized to Affymetrix GeneChip Affymetrix HT_MG-430_PM plate arrays with modified conditions as described in Allaire et al. Washing and staining of the hybridized arrays were completed as described in the GeneChip Expression analysis technical manual for HT plate arrays using the Genechip® Array Station (Affymetrix, Santa Clara, Calif.) with modifications as described in Allaire et al. The processed GeneChip® plate arrays were scanned using GeneTitan scanner (Affymetrix, Santa Clara, Calif.).
# Affymetrix scans were subject to quality control (QC) measures. These tests included a visual inspection of the distribution of raw signal intensities and an assessment of RNA degradation, relative log expression (RLE), and normalized unsealed standard error (NUSE). All sample scans that passed these QC metrics were included in the analysis.
# All CEL files were subjected to GC-content-based Robust Multi-array Average (GCRMA) normalization (version 2.20.0) (Irizarry R A, et al. Nucleic Acids Res 2003; 31:e15; Li C, et al. Genome Biol 2001; 2:[…]0032). Expression levels were log (base 2) transformed.
# All calculations and analyses were carried out using R (version 2.11.1) and Bioconductor computational tools (Gentleman R. Springer Science+Business Media 2005).
# [1] = 100 mpk, vs Vehicle, 2 h after last dosing
# [2] = 100 mpk, vs Vehicle, 7 h after last dosing
# [3] = 100 mpk, vs Vehicle, 12 h after last dosing
# [4] = hippocampus, 100DMF-vs-100MMF, 2 h
# [5] = hippocampus, 100DMF-vs-Veh, 7 h
# [6] = hippocampus, 100MMF-vs-Veh, 2 h
# [7] = hippocampus, 100MMF-vs-Veh, 7 h
# [8] = hippocampus, 2 hr after single 100 mg/kg oral dose
smiles,measurement,setting,value
"COC(=O)/C=C/C(=O)OC [DMF, dimethyl fumarate]","Number of genes, DMF Only / MMF Only",Hippocampus,0
same,Tmtc3 (1458305_PM_at) differential expression,Hippocampus,−2.38
same,Number of differentially expressed genes identified: Hippocampus,"100 mpk DMF-vs-100 mpk MMF, 2 h after last dosing",2
same,Number of differentially expressed genes identified: Hippocampus,"100 mpk DMF-vs-100 mpk MMF, 7 h after last dosing",0
same,Number of differentially expressed genes identified: Hippocampus,"100 mpk DMF-vs-100 mpk MMF, 12 h after last dosing",0
same,Number of differentially expressed genes identified: Hippocampus,[1],0
same,Number of differentially expressed genes identified: Hippocampus,[2],2
same,Number of differentially expressed genes identified: Hippocampus,[3],0
same,FC Dio2 (1418938_PM_at),[4],1.58
same,FC Tmtc3 (1458305_PM_at),[4],−1.88
same,differentially expressed genes,"hippocampus, 100DMF-vs-100MMF, 7 h",None
same,differentially expressed genes,"hippocampus, 100DMF-vs-100MMF, 12 h",None
same,differentially expressed genes,"hippocampus, 100DMF-vs-Veh, 2 h",None
same,FC Tmtc3 (1458305_PM_at),[5],−2.38
same,FC probe 1443353_PM_at,[5],−1.84
same,differentially expressed genes,"hippocampus, 100DMF-vs-Veh, 12 h",None
"COC(=O)/C=C/C(=O)O [MMF, monomethyl fumarate]","Number of genes, DMF Only / MMF Only",Hippocampus,6
same,Dnajc18 (1425077_PM_at) differential expression,"Hippocampus, 2 hr",−1.58
same,Heatr5b (1438085_PM_at) differential expression,"Hippocampus, 2 hr",−1.56
same,Kcnq3 (1458421_PM_at) differential expression,"Hippocampus, 2 hr",−1.50
same,Kpna4 (1417975_PM_at) differential expression,"Hippocampus, 2 hr",−1.51
same,Nfat5 (1426029_PM_a_at) differential expression,"Hippocampus, 2 hr",−1.51
same,Srgap2 (1434407_PM_at) differential expression,"Hippocampus, 2 hr",−1.50
same,Tmtc3 (1458305_PM_at) differential expression,Hippocampus,−2.40
same,Number of differentially expressed genes identified: Hippocampus,[1],3
same,Number of differentially expressed genes identified: Hippocampus,[2],2
same,Number of differentially expressed genes identified: Hippocampus,[3],1
same,FC Heatr5b (1438085_PM_at),[6],−1.56
same,FC Kpna4 (1417975_PM_at),[6],−1.51
same,FC Srgap2 (1434407_PM_at),[6],−1.50
same,FC Tmtc3 (1458305_PM_at),[7],−2.40
same,FC probe 1443353_PM_at,[7],−1.74
same,FC LOC100502895 (1435119_PM_at),"hippocampus, 100MMF-vs-Veh, 12 h",1.66
same,Dnajc18 mRNA fold change vs vehicle,[8],−1.58
same,Heatr5b mRNA fold change vs vehicle,[8],−1.56
same,Kcnq3 mRNA fold change vs vehicle,[8],−1.50
same,Kpna4 mRNA fold change vs vehicle,[8],−1.51
same,Nfat5 mRNA fold change vs vehicle,[8],−1.51
same,Srgap2 mRNA fold change vs vehicle,[8],−1.50
same,Tmtc3 mRNA fold change vs vehicle,"hippocampus, 7 hr after single 100 mg/kg oral dose",−2.40
